In patent US12246089B2, “Method for treatment of a viral-mediated infectious disease” (Virothera Pharmaceuticals LLC, priority 2020, dated 2025):
Where two headings read alike, the source gives them in different places.

What was measured:
COVID-19 = conditions: cited from earlier work
SARS-CoV-2 = conditions: in vitro; cited from earlier work
SARS-CoV = conditions: by interfering with glycosylation of ACE2; cited from earlier work
[1] = Encapsulation efficiency and loading capacity of niclosamide by HPLC; conditions: niclosamide in niclosamide, HPLC 333-346 nm
patients with COPD = conditions: cited from earlier work
[2] = tested on: viruses including COVID-19 viruses; conditions: cited from earlier work
[3] = biological target: SARS-CoV-2 spike glycoprotein (SGP) (Severe acute respiratory syndrome coronavirus 2, UniProt P0DTC2); conditions: cited from earlier work
[4] = tested on: severe coronavirus disease 2019 patients with coagulopathy; conditions: cited from earlier work
inhalation injury (IHI) = conditions: nebulized; cited from earlier work
[5] = cited from earlier work

CCN(CCO)CCCC(C)Nc1ccnc2cc(Cl)ccc12 (stereo not drawn) [hydroxychloroquine]
clinical benefit of combination with azithromycin (COVID-19; 11 patients with severe COVID-19): no evidence of clinical benefit
effectiveness in COVID-19-associated pneumonia (COVID-19; several clinical trials in China): to various degree effective
clinical effect in combination with azithromycin (COVID-19; small open-label non-randomized clinical trial from France): positive effect
viral copy number of SARS-CoV-2 (SARS-CoV-2): effectively reduce the viral copy number
replication of SARS-CoV (SARS-CoV): specifically inhibit the replication of SARS-CoV

O=C(Nc1ccc([N+](=O)[O-])cc1Cl)c1cc(Cl)ccc1O [niclosamide]
encapsulation efficiency [1]: 90%
loading capacity [1]: 10.0%

heparin
lung function (patients with COPD; inhaled, 21 days of treatment, COPD patients receiving pulmonary rehabilitation): significantly improves lung function
safety of inhaled nebulized UFH (patients with COPD; patients with moderate to very severe COPD): safe
binding affinity to viruses [2]: nanomolar to sub-nanomolar
SGP binding affinity [3]: high sub-nanomolar affinity
mortality ([4]; patients meeting sepsis induced coagulopathy (SIC) criteria ≥4, heparin therapy (vs 64.2%, P=0.029)): 40.0%
mortality ([4]; patients with SIC score <4, heparin therapy (vs 22.6%, P=0.419)): 29.0%
lung function and mortality in IHI (inhalation injury (IHI)): promotes improvement in lung function and decreased mortality
plasma protein binding [5]: high plasma protein binding
